What was measured:
[1] = wn = mass fraction of the nth substance listed; details: for surface tension liquid-gas: Ring tensiometer; for viscosity / mass density: Liquid; for mass density: Pycnometric method
[2] = for surface tension liquid-gas: Ring tensiometer; for viscosity / mass density: 101.33 kPa, Liquid; for viscosity: Capillary tube (Ostwald / Ubbelohde) method; for mass density: Pycnometric method

CC(O)CNCC(C)O (configuration not stated) [N-(2-hydroxypropyl)-2-hydroxy-1-propanamine] + O
[1], w1 = 0.3873
Details | surface tension liquid-gas [mN/m]
303.15 K | 45.3
313.15 K | 44.4
323.15 K | 43.2
333.15 K | 42.1
343.15 K | 40.5

[1], w1 = 0.3873
Details | mass density, 303.15 K [kg/m3] | mass density, 313.15 K [kg/m3] | mass density, 323.15 K [kg/m3] | mass density, 333.15 K [kg/m3] | mass density, 343.15 K [kg/m3] | viscosity, 303.15 K [mPa·s] | viscosity, 313.15 K [mPa·s] | viscosity, 323.15 K [mPa·s] | viscosity, 333.15 K [mPa·s] | viscosity, 343.15 K [mPa·s]
101 kPa | – | – | – | – | – | 5.42 | 3.74 | 2.56 | 1.88 | 1.42
101.3 kPa | 1016 | 1012 | 1006 | 1000 | 994.5 | – | – | – | – | –

C1CNCCN1 [piperazine] + O
[1], w1 = 0.0516
Details | surface tension liquid-gas [mN/m]
303.15 K | 69.56
313.15 K | 67.98
323.15 K | 66.49
333.15 K | 65.17

[1], 101 kPa, w1 = 0.0516
Details | mass density [kg/m3] | viscosity [mPa·s]
303.15 K | 998.34 | 0.959
313.15 K | 993.9 | 0.775
323.15 K | 989.79 | 0.641
333.15 K | 985.1 | 0.542

O=S1(=O)CCCC1 [sulfolane]
[2]
Details | mass density [kg/m3] | surface tension liquid-gas [mN/m] | viscosity [mPa·s]
303.15 K | 1262.3 | 47.95 | 10.18
313.15 K | 1254 | 47.22 | 7.85
323.15 K | 1245.7 | 46.61 | 6.15
333.15 K | 1236.5 | 45.74 | 4.4
343.15 K | 1229 | 45.16 | 3.57

O=S1(=O)CCCC1 [sulfolane] + O
[1], 101 kPa
Details | mass density, 303.15 K [kg/m3] | mass density, 313.15 K [kg/m3] | mass density, 323.15 K [kg/m3] | mass density, 333.15 K [kg/m3] | mass density, 343.15 K [kg/m3] | viscosity, 303.15 K [mPa·s] | viscosity, 313.15 K [mPa·s] | viscosity, 323.15 K [mPa·s] | viscosity, 333.15 K [mPa·s] | viscosity, 343.15 K [mPa·s]
w1 = 0.0346 | 1003 | 999.7 | 995.2 | 990.1 | 984.3 | 0.84 | 0.69 | 0.58 | 0.49 | 0.43
w1 = 0.0487 | 1007 | 1003 | 998.2 | 993 | 987 | 0.85 | 0.7 | 0.59 | 0.5 | 0.44
w1 = 0.0721 | 1012 | 1007 | 1003 | 998.9 | 991.7 | 0.88 | 0.73 | 0.61 | 0.52 | 0.45
w1 = 0.1022 | 1020 | 1016 | 1010 | 1005 | 998 | 0.92 | 0.76 | 0.64 | 0.55 | 0.48
w1 = 0.1635 | 1038 | 1032 | 1026 | 1020 | 1012 | 1.02 | 0.84 | 0.71 | 0.61 | 0.54

OCCN(CCO)CCO [triethanolamine]
[2]
Details | mass density [kg/m3] | surface tension liquid-gas [mN/m] | viscosity [mPa·s]
303.15 K | 1119.6 | 45.13 | 405.6
313.15 K | 1113.8 | 43.54 | 208.6
323.15 K | 1107.9 | 41.85 | 116
333.15 K | 1102 | 40.04 | 64.55
343.15 K | 1096.2 | 38.11 | 38.79

OCCN(CCO)CCO [triethanolamine] + O
[1], w1 = 0.4227
Details | surface tension liquid-gas [mN/m]
303.15 K | 54.5
313.15 K | 53.8
323.15 K | 53
333.15 K | 52.3
343.15 K | 51.4

[1], w1 = 0.4227
Details | mass density, 303.15 K [kg/m3] | mass density, 313.15 K [kg/m3] | mass density, 323.15 K [kg/m3] | mass density, 333.15 K [kg/m3] | mass density, 343.15 K [kg/m3] | viscosity, 303.15 K [mPa·s] | viscosity, 313.15 K [mPa·s] | viscosity, 323.15 K [mPa·s] | viscosity, 333.15 K [mPa·s] | viscosity, 343.15 K [mPa·s]
101 kPa | – | – | – | – | – | 4.13 | 2.91 | 2.16 | 1.67 | 1.36
101.3 kPa | 1052 | 1048 | 1043 | 1037 | 1032 | – | – | – | – | –
